In ChEMBL document CHEMBL1150641, “Bryoanthrathiophene, a new antiangiogenic constituent from the bryozoan Watersipora subtorquata (d'Orbigny, 1852)” (J Nat Prod, 2002) one finds IC50 and Activity data, which are given here for three molecules.

Assay [1] can be described thus: Antiangiogenic activity against BAEC assessed as inhibition of bFGF-induced cell proliferation in presence of 10% fetal bovine serum after 3 days by MTT assay. It counts as functional, Bos taurus.
Assay [2] can be described thus: Antiangiogenic activity against BAEC assessed as inhibition of bFGF-induced cell proliferation after 3 days by MTT assay. Type of assay: functional, Bos taurus. Background: Tetrazolium dyes change colour on reduction, which living cells bring about.
A further assay concerns BAEC. The assay is described as follows: Reduction of tube formation in bFGF-induced BAEC at 20 nM by Matrigel based tube formation assay. Type of assay: functional, cell-based. As to conditions: Bos taurus, TDE = time-dependent effect.

Regarding `COC(=O)c1sc2ccc(O)c3c2c1-c1cccc(O)c1C3=O`, the half-maximal inhibitory concentration (IC50) in assay [1] came out at 25.8 µM; in assay [2] it was 2.2 µM.
In the case of `Cc1sc2ccc(O)c3c2c1-c1cccc(O)c1C3=O` [BRYOANTHRATHIOPHENE], the half-maximal inhibitory concentration (IC50) in assay [1] turned out to be 0.22 µM; in assay [2], 0.005 µM. Also, the Activity entry in the assay with BAEC was “tde”.
Consider `O=C1c2cccc(O)c2C(=O)c2c(O)cccc21` [DANTHRON], for which the values for the concentration for half-maximal inhibition (IC50) in assay [1] and in assay [2] were 20.1 µM and 5.7 µM, respectively.

Broadly, the IC50 is the concentration at which inhibition is half-maximal.
